Measurements reported in patent US20100016335A1, “NOVEL AMINOPYRIDINE DERIVATIVES HAVING AURORA A SELECTIVE INHIBITORY ACTION” (priority 2006, published 2010).
Structures can show the parent of a compound that is named as a salt.

Key:
[1] = biological target: T1, human Aurora A (Homo sapiens, UniProt O14965); test: Aurora A inhibitory activity (IMAP fluorescence polarization phosphorylation assay); format: biochemical; settings: 20 μM ATP, 30° C., 120 minutes
T1 construct: His (N); made in house; host or cells: Escherichia coli BL21-CodonPlus(DE3)-RIL
T1 sequence (O14965 1-403): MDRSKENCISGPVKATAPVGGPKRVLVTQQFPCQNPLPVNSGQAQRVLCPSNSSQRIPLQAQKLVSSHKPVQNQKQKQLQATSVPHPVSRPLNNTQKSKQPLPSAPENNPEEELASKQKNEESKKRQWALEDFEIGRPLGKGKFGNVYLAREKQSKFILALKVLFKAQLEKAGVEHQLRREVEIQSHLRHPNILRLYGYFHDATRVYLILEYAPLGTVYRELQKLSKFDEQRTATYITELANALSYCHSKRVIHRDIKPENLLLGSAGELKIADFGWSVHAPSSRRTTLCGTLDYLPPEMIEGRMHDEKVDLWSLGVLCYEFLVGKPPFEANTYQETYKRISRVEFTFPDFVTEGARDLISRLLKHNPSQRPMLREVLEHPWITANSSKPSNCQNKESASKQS
Text: cDNA of N-terminal His-tagged human Aurora A was integrated into an expression vector, which was then highly expressed in Escherichia coli BL21-CodonPlus(DE3)-RIL cells. The Escherichia coli was harvested and lysed, and then the His-tagged human Aurora A protein was applied onto a nickel chelate column and eluted from the column with imidazole. The active fractions were desalted with a desalting column to give a purified enzyme.
For the phosphorylation reaction, the method by Upstate, Inc. [Kinase Profiler™ Assay Protocols] was referred to, and phosphorylation of the substrate was detected using IMAP® technology (Molecular Devices, Co. Ltd.) (Gaudet E W. et. al, J. Biomol. Screen, 8, 164-175 (2003)). Concretely, the phosphorylation reaction and the detection were carried out as follows:
The phosphorylation reaction was conducted using 384 well plate, and the reaction volume was 10 μl/well. The reaction buffer is comprised of 50 mM Tris-chloride buffer (pH 7.4), 15 mM magnesium acetate, and 0.2 mM ethylenediamine-N,N,N′,N′-tetraacetic acid (EDTA). Thereto, the purified Aurora A protein, 100 nM of the peptide substrate, and 20 μM of adenosine 5′-triphosphate (ATP) were added, and then the reaction was carried out at 30° C. for 120 minutes.
Thereafter, in order to terminate and detect the reaction, 30 μl of the IMAP (registered trademark) binding reagent (IMAP Progressive Binding Reagent, R7284) that had been diluted (1:400) in the 1×IMAP binding buffer A (IMAP Progressive Binding Buffer A, 5× stock, R7282) was added to each well. The solution stood still for 60 minutes in the dark, and then fluorescence polarization was measured using a high-end microplate reader (excitation wavelength: 485 nm; emission wavelength: 520 nm).
(§1) The compound to be tested was added to the reaction system such that a dilution series of the compound in dimethylsulfoxide (DMSO) was prepared, and then 0.5 μL of this solution was added for the testing to each well. Each control well was provided by adding 0.5 μL of DMSO to the well in place of the DMSO solution containing the compound to be tested.

[2] = biological target: T2, GST-tagged human Aurora B(AurB)/His-tagged human INCENP complex proteins (Homo sapiens, UniProt Q96GD4); test: Aurora B inhibitory activity (Method A, IMAP assay kit); format: biochemical; settings: 40 μM ATP, 25° C., 45 minutes
T2 construct: GST; purchased Carna Biosciences, Inc
Protocol: An assay development kit for IMAP (registered trademark) (Aurora B), purchased from Carna Biosciences, Inc., was used for phosphorylation reaction, and the phosphorylation of a substrate was detected using the IMAP technology. […] Using the same, the phosphorylation reaction was conducted in accordance with a partially revised protocol attached to the kit, and then the phosphorylation of the substrate was detected using the IMAP technology.
For the phosphorylation reaction, 384 well plate was used, and the reaction volume was 10 μl/well. The composition of the reaction buffer (assay buffer) is comprised of 20 mM of HEPES buffer (pH 7.4), 0.01% Tween-20, and 2 mM of dithiothreitol (DTT). Thereto, AurB/INCENP complex protein, 100 nM of the substrate, and 40 μM of ATP, and 1 mM of magnesium salt were added, and then the reaction was conducted at 25° C. for 45 minutes. Thereafter, in order to terminate and detect the reaction, 30 μl of the IMAP (registered trademark) binding reagent (IMAP Progressive Binding Reagent, R7284) that had been diluted (1:400) in the 1× IMAP binding buffer A (IMAP Progressive Binding Buffer A, 5× stock, R7282) was added to each well.
as §1, with “DMSO” for “dimethylsulfoxide (DMSO)”

[3] = test system: Human cervical cancer cells (HeLa S3); test: Cell growth inhibitory effect, WST-8 method; format: cell-based; settings: Homo sapiens, 72 h; HeLa S3, three days incubation; read-out: Cell growth inhibitory effect (HeLaS3) (IC50)
Protocol: Fetal calf serum (FCS) was purchased from Moregate Biotech, and DMEM medium was purchased from Invitrogen Corp. WST-8 was purchased from Kishida Chemical Co., Ltd.
(§2) Human cervical cancer cells (HeLa S3) were obtained from the American Type Culture Collection (ATCC).
Cells were suspended in a DMEM medium containing 10% FCS, and the cell suspension was dispensed to a 96-well plastic plate at a rate of 750 cells/100 microliters per well. The plate was incubated overnight in 5% CO2-95% air at 37° C. A drug was subjected to graded dilution in dimethylsulfoxide and further diluted with a DMEM medium containing 10% FCS. Then, the dilution was dispensed to the plate on which cells had been disseminated in advance, at a rate of 100 microliters per well. The plate was incubated for further three days in 5% CO2-95% air at 37° C. Cell growth after incubation was measured by the WST-8 method (H. Tominaga, et al., Anal. Commun., 36, 47-50 (1999)). Here, the WST-8 method refers to a method in which 20 microliters of a WST-8 reagent solution is added to each well, incubation is conducted at 37° C. for 60 minutes, the plate is stirred, and the amount of formazan produced is measured by a […] method to determine the inhibitory rate of the drug.

[4] = test system: Human cervical cancer cells (HeLa S3); test: Effect by combined use of drugs in cells (docetaxel), WST-8 method; format: cell-based; settings: HeLa S3, three days; for inhibition at 0.3 µM: compound 0.3 μM alone; for inhibition at 1 µM: compound 1.0 μM alone; for inhibition at 3 µM: compound 3.0 μM alone
Protocol: Fetal calf serum (FCS) was purchased from Moregate Biotech, DMEM medium from Invitrogen Corp., docetaxel (tradename: Taxere) from Sigma-Aldrich, Inc., and WST-8 from Kishida Chemical Co., Ltd.
as §2
Cells were suspended in a DMEM medium containing 10% FCS, and the cell suspension was dispensed to two 96-well plastic plates at a rate of 750 cells/100 microliters per well. The plates were incubated overnight in 5% CO2-95% air at 37° C. A drug was subjected to graded dilution in dimethylsulfoxide and further diluted with DMSO or with a DMEM medium containing 10% FCS and also containing 0.6 nM docetaxel. Then, the dilutions were each dispensed to one of the plates on which cells had been disseminated in advance, at a rate of 100 microliters per well. The final concentration of docetaxel at this stage was 0.3 nM. Also, the concentrations in the case of sole administration of the compound according to the invention were 0.003, 0.01, 0.03, 0.1, 0.3, 1, 3 and 10 μM. The plates were incubated for further three days in 5% CO2-95% air at 37° C. Cell growth after incubation was measured by the WST-8 method (H. Tominaga, et al., Anal. Commun., 36, 47-50 (1999)). Here, the WST-8 method refers to a method in which 20 microliters of a WST-8 reagent solution is added to each well, incubation is conducted at 37° C. for 60 minutes, the plate is stirred, and the amount of formazan produced is measured by a colorimetric method to determine the inhibitory rate of the drug. The growth inhibitory effects of docetaxel and of the compound according to the invention were determined, with the value obtained in sole treatment of DMSO being defined as 0%.

[5] = Homo sapiens, HeLa S3, 72 h, read-out: Cell growth inhibitory effect by sole administration of the compound of Example (%)
[6] = compound 0.3 μM + docetaxel 0.3 nM
[7] = compound 1.0 μM + docetaxel 0.3 nM
[8] = compound 3.0 μM + docetaxel 0.3 nM

T2 sequence (Q96GD4 whole entry): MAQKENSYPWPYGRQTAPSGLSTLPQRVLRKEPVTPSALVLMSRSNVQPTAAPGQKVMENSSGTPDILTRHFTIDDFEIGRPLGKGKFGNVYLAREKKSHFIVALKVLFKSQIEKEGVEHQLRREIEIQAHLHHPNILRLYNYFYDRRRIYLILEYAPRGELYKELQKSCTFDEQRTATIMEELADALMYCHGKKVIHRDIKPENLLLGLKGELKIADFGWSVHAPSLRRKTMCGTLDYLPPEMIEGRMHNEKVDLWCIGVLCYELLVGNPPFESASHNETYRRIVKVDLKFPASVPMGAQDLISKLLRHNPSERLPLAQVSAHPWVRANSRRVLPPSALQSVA
T2 sequence (Q9NQS7 803-916 partner limits assumed): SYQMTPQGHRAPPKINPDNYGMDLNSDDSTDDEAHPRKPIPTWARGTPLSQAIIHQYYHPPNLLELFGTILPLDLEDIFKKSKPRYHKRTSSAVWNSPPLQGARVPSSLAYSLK

SMILES | IC50 [1] [nM] | IC50 [2] [nM] | IC50 [3] [nM] | inhibition at 0.3 µM [4, 5] [%] | inhibition at 1 µM [4, 5] [%] | Cell growth inhibitory effect by combined administration of docetaxel and the compound of Example (%) [4, 6] [%] | Cell growth inhibitory effect by combined administration of docetaxel and the compound of Example (%) [4, 7] [%] | inhibition at 3 µM [4, 5] [%] | Cell growth inhibitory effect by combined administration of docetaxel and the compound of Example (%) [4, 8] [%] | inhibition at 0.1 µM ([4]; Homo sapiens, HeLa S3, 72 h, compound 0.1 μM alone, read-out: Cell growth inhibitory effect by sole administration of the compound of Example (%)) [%] | Cell growth inhibitory effect by combined administration of docetaxel and the compound of Example (%) ([4]; compound 0.1 μM + docetaxel 0.3 nM)
Cl.O=C(O)[C@]1(Cc2cccc(Nc3nccs3)n2)CC[C@@H](Oc2cccc(C(F)(F)F)c2F)CC1 [Example 4, trans-4-(2-fluoro-3-(trifluoromethyl)phenoxy)-1-((6-(1,3-thiazol-2-ylamino)pyridin-2-yl)methyl)cyclohexanecarboxylic acid hydrochloride] | 0.11 | 32 | 830 | 22.9 | 52.9 | 88.6 | 93.8 | – | – | – | –
NC(=O)[C@]1(Cc2cncc(Nc3cc[nH]n3)n2)CC[C@@H](Oc2cccc(Cl)c2F)CC1 [Example 15, trans-4-(3-chloro-2-fluorophenoxy)-1-((6-(1H-pyrazol-3-ylamino)pyrazin-2-yl)methyl)cyclohexanecarboxamide] | 2 | 870 | 1760 | 17 | 42.4 | 76.4 | 90.8 | – | – | – | –
O=C(O)[C@]1(Cc2cccc(Nc3cc[nH]n3)n2)CC[C@@H](Oc2cccc(C(F)(F)F)c2F)CC1 [Example 9, trans-4-(2-fluoro-3-(trifluoromethyl)phenoxy)-1-((6-(1H-pyrazol-3-ylamino)pyridin-2-yl)methyl)cyclohexanecarboxylic acid trifluoroacetate] | 0.16 | 190 | 2210 | – | 37.1 | – | 91.8 | 59 | 95.0 | – | –
O=C(O)[C@]1(Cc2cccc(Nc3cc[nH]n3)n2)CC[C@@H](Sc2cccc(Cl)c2Cl)CC1 [Example 33, trans-4-((2,3-dichlorophenyl)thio)-1-((6-(1H-pyrazol-3-ylamino)pyridin-2-yl)methyl)cyclohexanecarboxylic acid trifluoroacetate] | 0.13 | 210 | 2220 | 0.3 | 23.4 | 75.5 | 91.3 | – | – | – | –
O=c1[nH]nc([C@]2(Cc3cccc(Nc4cc[nH]n4)n3)CC[C@@H](Oc3cccc(Cl)c3F)CC2)o1 [Example 23, 5-(trans-4-(3-chloro-2-fluorophenoxy)-1-((6-(1H-pyrazol-3-ylamino)pyridin-2-yl)methyl)cyclohexyl)-1,3,4-oxadiazol-2(3H)-one] | 0.39 | 490 | 760 | 36 | – | 87.4 | – | – | – | 3.7 | 71.5
O=C(O)[C@]1(Cc2cccc(Nc3nccs3)n2)CC[C@@H]([S+]([O-])c2cccc(Cl)c2Cl)CC1 (stereo partly drawn) [Example 31, trans-4-((2,3-dichlorophenyl)sulfinyl)-1-((6-(1,3-thiazol-2-ylamino)pyridin-2-yl)methyl)cyclohexanecarboxylic acid trifluoroacetate] | 0.19 | 53 | 5890 | – | 1 | – | 75.1 | 38.5 | 89.0 | – | –
